30 molecules from ChEMBL document CHEMBL4428099, “Identification of indole scaffold-based dual inhibitors of NOD1 and NOD2” (Bioorg Med Chem, 2016) can be followed below.

Format in all cases: cell-based
Data set [1] is described as follows: Cytotoxicity against HEK-Blue cells assessed as residual metabolic activity up to 25 uM measured after 24 hrs by MTS assay relative to untreated control. The note with it: human, read-out: Activity.
The target in data set [2] is T1, Nucleotide-binding oligomerization domain-containing protein 1 (Homo sapiens) (UniProt Q9Y239).
T1 sequence (whole entry): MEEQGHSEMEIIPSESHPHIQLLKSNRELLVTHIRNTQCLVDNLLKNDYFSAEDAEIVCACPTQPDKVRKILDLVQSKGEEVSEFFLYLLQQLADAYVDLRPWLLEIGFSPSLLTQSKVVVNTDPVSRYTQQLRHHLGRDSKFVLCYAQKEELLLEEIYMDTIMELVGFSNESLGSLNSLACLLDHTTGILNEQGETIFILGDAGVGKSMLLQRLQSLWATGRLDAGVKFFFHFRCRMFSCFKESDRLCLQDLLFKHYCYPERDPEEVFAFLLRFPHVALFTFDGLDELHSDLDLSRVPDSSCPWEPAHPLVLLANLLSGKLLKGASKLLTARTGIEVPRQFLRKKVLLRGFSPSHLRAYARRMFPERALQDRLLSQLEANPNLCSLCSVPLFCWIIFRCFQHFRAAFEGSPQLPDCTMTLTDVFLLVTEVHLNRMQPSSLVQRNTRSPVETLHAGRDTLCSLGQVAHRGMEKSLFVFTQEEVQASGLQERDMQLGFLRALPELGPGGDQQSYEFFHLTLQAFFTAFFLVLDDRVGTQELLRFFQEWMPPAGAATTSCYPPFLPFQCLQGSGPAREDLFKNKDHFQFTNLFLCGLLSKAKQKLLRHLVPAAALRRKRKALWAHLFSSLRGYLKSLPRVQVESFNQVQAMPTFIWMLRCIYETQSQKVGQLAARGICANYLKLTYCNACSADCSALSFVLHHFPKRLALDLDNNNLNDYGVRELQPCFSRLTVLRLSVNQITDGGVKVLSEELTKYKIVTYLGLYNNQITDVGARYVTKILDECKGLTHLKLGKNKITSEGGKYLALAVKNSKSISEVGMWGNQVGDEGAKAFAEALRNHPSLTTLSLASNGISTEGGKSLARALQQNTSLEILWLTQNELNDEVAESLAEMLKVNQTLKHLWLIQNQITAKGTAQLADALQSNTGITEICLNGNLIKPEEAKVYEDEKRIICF
In words: Inhibition of human NOD1 over-expressed in HEK-Blue cells assessed as inhibition of […] NF-kappaB transcriptional activity measured as residual activity at 25 uM preincubated for 1 hr followed by addition of C12-iE-DAP measured after 18 hrs by SEAP reporter gene assay relative to control.

In data set [3] the target is Nucleotide-binding oligomerization domain-containing protein 2 (Homo sapiens, UniProt Q9HC29). In words: Inhibition of human NOD2 over-expressed in HEK-Blue cells assessed as inhibition of […] NF-kappaB transcriptional activity preincubated for 1 hr followed by addition of C12-iE-DAP measured after 18 hrs by SEAP reporter gene assay.
The target of data set [4] is T2, Nucleotide-binding oligomerization domain-containing protein 1 (Homo sapiens, UniProt Q9Y239).
T2 sequence (Q9Y239 whole entry): T1 sequence (whole entry)
In words: Inhibition of human NOD1 over-expressed in HEK-Blue cells assessed as inhibition of […] NF-kappaB transcriptional activity preincubated for 1 hr followed by addition of C12-iE-DAP measured after 18 hrs by SEAP reporter gene assay.

Active and inactive are the calls of the source. No cut-off for these calls is given here.

Chain of Nucleotide-binding oligomerization domain-containing protein 2 (Q9HC29 whole entry, the tested form may be a part): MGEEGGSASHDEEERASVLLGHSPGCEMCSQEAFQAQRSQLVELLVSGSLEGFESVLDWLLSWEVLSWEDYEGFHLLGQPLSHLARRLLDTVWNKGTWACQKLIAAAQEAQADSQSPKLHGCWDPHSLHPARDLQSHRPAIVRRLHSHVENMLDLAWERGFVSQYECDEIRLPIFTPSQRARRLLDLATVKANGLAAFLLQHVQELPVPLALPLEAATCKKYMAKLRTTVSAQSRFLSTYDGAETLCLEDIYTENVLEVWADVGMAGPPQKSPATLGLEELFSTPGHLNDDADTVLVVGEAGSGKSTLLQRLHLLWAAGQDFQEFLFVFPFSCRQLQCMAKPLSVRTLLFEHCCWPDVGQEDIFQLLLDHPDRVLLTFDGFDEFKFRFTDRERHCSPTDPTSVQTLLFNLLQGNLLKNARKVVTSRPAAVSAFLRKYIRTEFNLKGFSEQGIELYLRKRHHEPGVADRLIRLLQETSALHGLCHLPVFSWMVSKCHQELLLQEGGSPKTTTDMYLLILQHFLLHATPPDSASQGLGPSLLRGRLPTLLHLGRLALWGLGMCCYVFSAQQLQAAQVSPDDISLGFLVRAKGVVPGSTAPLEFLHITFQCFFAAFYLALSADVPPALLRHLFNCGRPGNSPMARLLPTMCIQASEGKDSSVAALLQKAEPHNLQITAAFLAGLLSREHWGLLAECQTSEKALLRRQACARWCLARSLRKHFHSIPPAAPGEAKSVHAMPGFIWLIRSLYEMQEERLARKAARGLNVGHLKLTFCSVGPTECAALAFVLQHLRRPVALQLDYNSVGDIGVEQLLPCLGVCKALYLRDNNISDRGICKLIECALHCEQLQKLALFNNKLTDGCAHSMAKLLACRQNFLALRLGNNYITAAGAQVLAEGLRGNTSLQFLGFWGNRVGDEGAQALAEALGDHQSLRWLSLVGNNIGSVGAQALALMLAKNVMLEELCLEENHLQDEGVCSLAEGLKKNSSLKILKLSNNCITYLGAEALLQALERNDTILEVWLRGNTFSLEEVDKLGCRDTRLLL

In the case of `CCOC(=O)c1cc2ccccc2n1Cc1ccc(C)cc1`, the viability at 24 h in data set [1] was not below 80%. Moreover, the Activity in data set [2] turned out to be 24%. In addition, the IC50 in data set [3] came to 9.04 µM; in data set [4], 7.78 µM.
For the molecule `N=C1Cc2ccccc2N1Cc1ccc(Br)cc1`, the viability at 24 h in data set [1] is not below 80%. Besides, the result in data set [2] was inactive.
For `Cc1ccc(CN2C(=N)Cc3ccccc32)cc1`, the viability at 24 h in data set [1] was not below 80%. Further, the result in data set [2] was inactive.
Regarding `CC(C)(C)OC(=O)Nc1cc2ccccc2n1Cc1ccc(Cl)cc1`, the viability at 24 h in data set [1] is not below 80%.
Consider `Cc1ccc(S(=O)(=O)n2c(N)nc3ccccc32)cc1`, for which, in data set [1], the viability at 24 h is not below 80%. Moreover, in data set [2], the Activity came to 9%. Moreover, the IC50 in data set [3] stood at 54.9 µM.
For the molecule `N=C1Cc2ccccc2N1Cc1ccc(Cl)cc1`, the viability at 24 h in data set [1] was not below 80%. Besides, in data set [2], the Activity stood at 44%. For the same molecule, the IC50 in data set [3] is more than 25 µM; in data set [4] it was 15.7 µM.
For `CCOC(=O)c1cc2ccccc2n1S(=O)(=O)c1ccc(F)cc1`, the viability at 24 h in data set [1] is not below 80%. Besides, the Activity in data set [2] was found to be 24%. In addition, the results for the IC50 in data set [3] and in data set [4] were 12.6 µM and 9.22 µM, respectively.
Consider `CCOC(=O)c1cc2ccccc2n1Cc1ccc(Cl)cc1`, for which the viability at 24 h in data set [1] was not below 80%. Also, the Activity in data set [2] was found to be 29%.
On to `Cc1ccc(S(=O)(=O)n2c(C(=O)NN)cc3ccccc32)cc1`, for which the viability at 24 h in data set [1] is not below 80%. Also, the Activity in data set [2] came to 68%.
As to `CCOC(=O)c1cc2ccccc2n1Cc1ccc(C(C)C)cc1`, the viability at 24 h in data set [1] was not below 80%. In addition, the Activity in data set [2] came to 42%.
On to `N=C1Cc2ccccc2N1Cc1ccc(C2CC2)cc1`, for which, in data set [1], the viability at 24 h is not below 80%. In data set [2], the result was inactive.
For `CCOC(=O)c1cc2ccccc2n1Cc1ccc(C(F)(F)F)cc1`, the viability at 24 h in data set [1] was not below 80%. Moreover, the Activity in data set [2] was found to be 46%.
As for `CC(C)c1ccc(CN2C(=N)Cc3ccccc32)cc1`, the viability at 24 h in data set [1] was not below 80%. Moreover, the outcome in data set [2] was inactive.
As to `N=C1Cc2ccccc2N1Cc1ccccc1`, in data set [1], the viability at 24 h was not below 80%. For the same molecule, in data set [2], the Activity is 72%.
As to `Cc1ccc(S(=O)(=O)n2c(C(=O)O)cc3ccccc32)cc1`, the viability at 24 h in data set [1] was not below 80%.
Take `CCOC(=O)c1cc2ccccc2n1S(=O)(=O)c1ccc([N+](=O)[O-])cc1`: the viability at 24 h in data set [1] is not below 80%. Moreover, the Activity in data set [2] stood at 27%. Moreover, the half-inhibitory concentration (IC50) was 16.9 µM in data set [3] and 15 µM in data set [4].
On to `CCOC(=O)c1cc2ccccc2n1S(=O)(=O)c1ccc(C(F)(F)F)cc1`, for which the viability at 24 h in data set [1] was not below 80%. Besides, the Activity in data set [2] amounted to 37%.
With `Cc1ccc(S(=O)(=O)n2c(NC(=O)OC(C)(C)C)cc3ccccc32)cc1`, the viability at 24 h in data set [1] is not below 80%.
On to `N=C1Cc2ccccc2N1Cc1ccc(C(F)(F)F)cc1`, for which the viability at 24 h in data set [1] was not below 80%. Besides, the result in data set [2] was inactive.
Take `Cc1ccc(S(=O)(=O)n2c(C(N)=O)cc3ccccc32)cc1`: the viability at 24 h in data set [1] is not below 80%. Moreover, the Activity in data set [2] was found to be 76%.
On to `CCOC(=O)c1cc2ccccc2n1Cc1ccc(C2CC2)cc1`, for which the viability at 24 h in data set [1] was not below 80%. Moreover, the Activity in data set [2] was 39%.
For the molecule `CCOC(=O)c1cc2ccccc2n1S(=O)(=O)c1ccc(C)cc1`, the viability at 24 h in data set [1] was not below 80%. Also, the Activity in data set [2] was determined as 24%. For the same molecule, the IC50 in data set [3] is 6.45 µM; in data set [4] it was 5.74 µM.
Take `CCOC(=O)c1cc2ccccc2n1Cc1ccccc1`: in data set [1], the viability at 24 h is not below 80%. The Activity in data set [2] came out at 58%.
On to `Cc1ccc(S(=O)(=O)N2C(=N)Cc3ccccc32)cc1`, for which the viability at 24 h in data set [1] is not below 80%.
As to `CCOC(=O)c1cc2ccccc2n1Cc1ccc(Br)cc1`, the viability at 24 h in data set [1] was not below 80%. The Activity in data set [2] turned out to be 45%.
With `O=C(O)c1cc2ccccc2n1Cc1ccc(Cl)cc1`, the viability at 24 h in data set [1] was not below 80%.
In the case of `CCOC(=O)c1cc2ccccc2n1Cc1ccc(F)cc1`, the viability at 24 h in data set [1] was not below 80%. Moreover, the Activity in data set [2] was 53%.
Turning to `CCOC(=O)c1cc2ccccc2n1C(=O)c1ccc(C)cc1`, in data set [1], the viability at 24 h is not below 80%. Besides, the IC50 in data set [3] came to 24.6 µM; in data set [4], 16 µM.
Take `CCOC(=O)c1cc2ccccc2n1S(=O)(=O)c1ccc(Cl)cc1`: in data set [1], the viability at 24 h is not below 80%. Further, in data set [2], the Activity is 30%. Besides, the IC50 in data set [3] came out at 23.4 µM; in data set [4] it was 19.8 µM.
On to `CCOC(=O)c1cc2ccccc2n1S(=O)(=O)c1ccc(OC)cc1`, for which, in data set [1], the viability at 24 h is not below 80%. The Activity in data set [2] came to 36%.
